Among the data in patent US9073911B2, “Pyrazole derivatives” (HOFFMANN-LA ROCHE INC., priority 2011, dated 2015) are Ki and Kd values, retold here.

Where a name gives a salt, the structure may show the parent alone.

For assay [1], the target named is mouse TAAR1 (Mus musculus (Mouse), UniProt Q923Y8). The assay can be described thus: Radioligand binding assay on mouse TAAR1. As to conditions: for Ki: membranes of HEK-293 cells stably expressing mouse TAAR1, first value of cell mouse/rat.
In assay [2] the target is rat TAAR1 (Rattus norvegicus (Rat), UniProt Q923Y9). The assay can be described thus: Radioligand binding assay on rat TAAR1. As to conditions: for Ki: membranes of HEK-293 cells stably expressing rat TAAR1, second value of cell mouse/rat.
Chain of rat TAAR1 (Q923Y9 whole entry): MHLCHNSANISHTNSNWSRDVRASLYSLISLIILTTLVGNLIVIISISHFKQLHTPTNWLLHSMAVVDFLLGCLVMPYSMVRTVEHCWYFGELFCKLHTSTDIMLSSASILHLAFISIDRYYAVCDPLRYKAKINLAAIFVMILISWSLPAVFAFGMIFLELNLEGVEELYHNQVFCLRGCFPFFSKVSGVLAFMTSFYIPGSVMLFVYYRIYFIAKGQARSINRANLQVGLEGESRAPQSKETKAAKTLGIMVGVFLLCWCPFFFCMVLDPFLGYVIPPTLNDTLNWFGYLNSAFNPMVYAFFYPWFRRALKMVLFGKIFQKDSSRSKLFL

Chain of mouse TAAR1 (Q923Y8 whole entry): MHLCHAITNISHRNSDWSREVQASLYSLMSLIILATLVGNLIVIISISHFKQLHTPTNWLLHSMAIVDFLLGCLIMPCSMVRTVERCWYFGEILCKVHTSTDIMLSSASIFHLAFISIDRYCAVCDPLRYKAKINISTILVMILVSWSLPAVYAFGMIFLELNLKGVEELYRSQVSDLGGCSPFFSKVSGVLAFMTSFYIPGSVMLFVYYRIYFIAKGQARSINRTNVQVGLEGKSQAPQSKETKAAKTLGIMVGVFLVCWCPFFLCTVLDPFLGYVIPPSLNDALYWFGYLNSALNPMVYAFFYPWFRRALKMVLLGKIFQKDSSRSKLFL

As for `O=C(Nc1ccc([C@H]2CNCCO2)cc1)c1ccn(-c2cncc(C(F)(F)F)n2)n1` [Example 52, (S)—N-(4-(Morpholin-2-yl)phenyl)-1-(6-(trifluoromethyl)pyrazin-2-yl)-1H-pyrazole-3-carboxamide hydrochloride], the Ki (usually the equilibrium dissociation constant of an inhibitor or competing ligand from its target) came out at 0.0084 µM in assay [1] and 0.0074 µM in assay [2].

With `N#Cc1cnc(-n2ccc(C(=O)Nc3ccc([C@H]4CNCCO4)cc3)n2)cn1` [Example 53, (S)-1-(5-Cyanopyrazin-2-yl)-N-(4-(morpholin-2-yl)phenyl)-1H-pyrazole-3-carboxamide hydrochloride], the results for the Ki in assay [1] and in assay [2] were 0.011 µM and 0.0298 µM, respectively.

On to `O=C(Nc1ccc([C@H]2CNCCO2)cc1)c1ccn(-c2ccnc(C(F)(F)F)n2)n1` [Example 54, (S)—N-(4-(Morpholin-2-yl)phenyl)-1-(2-(trifluoromethyl)pyrimidin-4-yl)-1H-pyrazole-3-carboxamide hydrochloride], for which the values for the Ki in assay [1] and in assay [2] were 0.0065 µM and 0.0088 µM, respectively.

With `CCN(C[C@H]1COC(N)=N1)c1ccccc1` [^3[H]—(S)-4-[(ethyl-phenyl-amino)-methyl]-4,5-dihydro-oxazol-2-ylamine, reference compound], the Kd (in general, the concentration at which binding is half-saturated) is about 0.7 nM in assay [1] (mouse TAAR1 membranes, saturation curve, usual value, read-out: calculated Kd value of the TAAR1 radioligand) and about 2.3 nM in assay [2] (rat TAAR1 membranes, saturation curve, usual value, read-out: calculated Kd value of the TAAR1 radioligand).
